Values after ≈ are worked out from the molar mass of the structure shown. Read-outs that look alike come from different tables or passages of the source.
Assays:
[1] = Solubility in water by HPLC; type: physicochemical; conditions: water
How it was run: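 Compound (1.0 mg in 10 μL DMSO) mixed with 1.0 mL water, shaken 5 min and centrifuged; supernatant analysed by C18 HPLC. Water concentration derived from peak area relative to an acetonitrile standard at 1.0 mg/mL.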

[2] = tested on: MRSA clinical isolates; experiment: MIC by broth microdilution against multidrug-resistant MRSA clinical isolates; type: cell-based, Staphylococcus aureus; conditions: for MIC: Staphylococcus aureus
How it was run: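 Multidrug-resistant clinical MRSA isolates, 1 × 10^6 CFU/mL suspension in Mueller Hinton broth, broth microdilution with compounds at final 1, 0.5, 0.25 and 0.125 mg/L. Incubated 18 h at 37 °C; MIC taken as lowest concentration with no visible growth, triplicate.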

[3] = tested on: HepG2 human liver carcinoma cells; experiment: MTT cytotoxicity (hepatotoxicity) on HepG2; type: cell-based; conditions: Homo sapiens, HepG2, 24 h
Method: The primary screening of 22 substances was performed on human embryonic fibroblasts (HEFs). […] The HepG2 cell line was obtained from the American Type Culture Collection (ATCC cat. # HB-8065). The primary HEF cells (normal human embryonic fibroblasts) were derived from human embryonic stem cells. The cells were cultured in DMEM/F12 (1:1) medium containing 10% fetal bovine serum (Invitrogen, Carlsbad, CA, USA) at 37 °C and 5% CO2, according to standard mammalian tissue culture protocols and sterile technique. […] The incubation time with the substance was 24 h for all substances and cell lines. Cell detachment by trypsin, centrifugation, and counting in a hemocytometer were performed 16 h before the addition of the substance. For correct counting of the HepG2 cells, the cell suspension was passed through a syringe needle to get rid of cell aggregates. The cells were placed in the wells of a 96-well plate. The number of cells was selected according to the properties of the cell line and the final optical density in the experiment. Fibroblasts and hepatocytes were used in the amount of 10 thousand cells per well in 100 μL of DMEM/F12 medium supplemented with 10% fetal bovine serum. The substances were added to 100 µL of medium in the wells so that the final concentrations were 50, 25, 12.5, 6.25, 3.125, and 1.62 mg/L. The final well volume was 200 µL. The medium containing fetal bovine serum, without added substances, was used as a negative control. After 24 h, excessive amounts of medium were discarded. A total of 30 µL of MTT solution (5 mg/mL in PBS) was added to each well. After the precipitation of formazan crystals (3 h incubation), they were dissolved using 100 μL of dimethyl sulfoxide. The optical density (OD) was measured at 570 nm using a microplate reader (Eppendorf). For every condition, the cell viabilities were assessed in at least three independent experiments for every cell culture. Cell survival was calculated using the following formula:(OD of treated cells − OD blank)/(OD of control cells − OD blank) × 100%, where OD blank represents the OD values in wells without cells but with the addition of the MTT and DMSO solutions. The results were presented in the form of cytotoxicity curves, and the graphs were also plotted in a Microsoft Excel program; the calculation of the IC50 half-maximal inhibition concentration values was performed in a GraphPad Prism 6.0 (GraphPad Software Inc., San Diego, CA, USA) program, based on the equations of the cytotoxicity curves.

[4] = tested on: human embryonic fibroblasts (HEFs); experiment: MTT cytotoxicity on human embryonic fibroblasts; type: cell-based; conditions: Homo sapiens, Fibroblast, 24 h, ND = non-toxic in tested concentrations (up to 50 mg/L)
How it was run: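 HepG2 and HEF cells were seeded at 10 thousand cells/well in DMEM/F12 with 10% FBS, 16 h before treatment. They were exposed for 24 h at 37 °C to final concentrations of 50–1.62 mg/L, then given MTT for 3 h, with OD read at 570 nm. Survival was expressed relative to untreated cells after blank subtraction, and IC50 was fitted from the curves.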

[5] = tested on: MRSA; experiment: Selectivity index (average IC50 on eukaryotic cells / average MIC on MRSA); type: cell-based, Staphylococcus aureus; conditions: average IC50 on eukaryotic cells divided by average MIC on MRSA
Method: The selectivity index was calculated for each compound as the average IC50 on eukaryotic cells divided by the average MIC on MRSA (Table 2).

For `CCOC(=O)c1[nH]c2cc(F)ccc2c1/N=N/N1CCCC1` [BX-SI043, Ethyl (E)-6-fluoro-3-(pyrrolidin-1-yldiazenyl)-1H-indole-2-carboxylate], the solubility at 5 min ([1]; read-out: Solubility in water, mass concentration) was 0.88 µg/mL, the solubility at 5 min ([1]; read-out: Solubility in water, molar concentration) was 3 µM and the “MIC Range Against 8 MRSA Strains” value ([2]; 8 multidrug-resistant MRSA clinical isolates, tested 0.125-1 mg/L) was 0.25 µg/mL (≈ 0.821 µM). The “minimal inhibitory concentration range” value ([2]; 41 multidrug-resistant MRSA strains) was 0.125 to 0.5 µg/mL, the “times lower MIC than either vancomycin or linezolid” value ([2]; MRSA) was 4–8 times and the MIC ([2]; MRSA, 8 MRSA strains, read-out: lowest MIC values against most tested strains) was 0.25 µg/mL (≈ 0.821 µM). For the same molecule, the MIC ([2]; MRSA, Figure 6, MRSA strain 2, read-out: MIC against 8 MRSA strains) was 0.25 µg/mL (≈ 0.821 µM), the MIC ([2]; MRSA, Figure 6, MRSA strain 7, read-out: MIC against 8 MRSA strains) was 0.25 µg/mL (≈ 0.821 µM) and the MIC ([2]; MRSA, Figure 6, MRSA strain 8, read-out: MIC against 8 MRSA strains) was 0.25 µg/mL (≈ 0.821 µM). It also gave an MIC ([2]; MRSA, Figure 6, MRSA strain 9, read-out: MIC against 8 MRSA strains) of 0.25 µg/mL (≈ 0.821 µM), an MIC ([2]; MRSA, Figure 6, MRSA strain 13, read-out: MIC against 8 MRSA strains) of 0.25 µg/mL (≈ 0.821 µM) and an MIC ([2]; MRSA, Figure 6, MRSA strain 21, read-out: MIC against 8 MRSA strains) of 0.25 µg/mL (≈ 0.821 µM). The MIC ([2]; MRSA, Figure 6, MRSA strain 48, read-out: MIC against 8 MRSA strains) was 0.25 µg/mL (≈ 0.821 µM), the MIC ([2]; MRSA, Figure 6, MRSA strain 50, read-out: MIC against 8 MRSA strains) was 0.25 µg/mL (≈ 0.821 µM) and the MIC ([2]; MRSA, Table S4, MRSA strain 1, read-out: MIC) was 0.25 µg/mL (≈ 0.821 µM). The MIC ([2]; MRSA, Table S4, MRSA strain 2, read-out: MIC) was 0.5 µg/mL (≈ 1.64 µM), the MIC ([2]; MRSA, Table S4, MRSA strain 3, read-out: MIC) was 0.5 µg/mL (≈ 1.64 µM) and the MIC ([2]; MRSA, Table S4, MRSA strain 4, read-out: MIC) was 0.5 µg/mL (≈ 1.64 µM). It also gave an MIC ([2]; MRSA, Table S4, MRSA strain 5, read-out: MIC) of 0.25 µg/mL (≈ 0.821 µM), an MIC ([2]; MRSA, Table S4, MRSA strain 6, read-out: MIC) of 0.5 µg/mL (≈ 1.64 µM) and an MIC ([2]; MRSA, Table S4, MRSA strain 7, read-out: MIC) of 0.5 µg/mL (≈ 1.64 µM). The MIC ([2]; MRSA, Table S4, MRSA strain 8, read-out: MIC) was 0.25 µg/mL (≈ 0.821 µM), the MIC ([2]; MRSA, Table S4, MRSA strain 9, read-out: MIC) was 0.5 µg/mL (≈ 1.64 µM) and the MIC ([2]; MRSA, Table S4, MRSA strain 10, read-out: MIC) was 0.25 µg/mL (≈ 0.821 µM). The MIC ([2]; MRSA, Table S4, MRSA strain 12, read-out: MIC) was 0.25 µg/mL (≈ 0.821 µM), the MIC ([2]; MRSA, Table S4, MRSA strain 13, read-out: MIC) was 0.5 µg/mL (≈ 1.64 µM) and the MIC ([2]; MRSA, Table S4, MRSA strain 14, read-out: MIC) was 0.25 µg/mL (≈ 0.821 µM). It also gave an MIC ([2]; MRSA, Table S4, MRSA strain 15, read-out: MIC) of 0.25 µg/mL (≈ 0.821 µM), an MIC ([2]; MRSA, Table S4, MRSA strain 16, read-out: MIC) of 0.25 µg/mL (≈ 0.821 µM) and an MIC ([2]; MRSA, Table S4, MRSA strain 17, read-out: MIC) of 0.5 µg/mL (≈ 1.64 µM). For the same molecule, the MIC ([2]; MRSA, Table S4, MRSA strain 18, read-out: MIC) was 0.5 µg/mL (≈ 1.64 µM), the MIC ([2]; MRSA, Table S4, MRSA strain 21, read-out: MIC) was 0.5 µg/mL (≈ 1.64 µM) and the MIC ([2]; MRSA, Table S4, MRSA strain 23, read-out: MIC) was 0.5 µg/mL (≈ 1.64 µM). For the same molecule, the MIC ([2]; MRSA, Table S4, MRSA strain 24, read-out: MIC) was 0.5 µg/mL (≈ 1.64 µM), the MIC ([2]; MRSA, Table S4, MRSA strain 25, read-out: MIC) was 0.5 µg/mL (≈ 1.64 µM) and the MIC ([2]; MRSA, Table S4, MRSA strain 26, read-out: MIC) was 0.25 µg/mL (≈ 0.821 µM). The MIC ([2]; MRSA, Table S4, MRSA strain 27, read-out: MIC) was 0.5 µg/mL (≈ 1.64 µM), the MIC ([2]; MRSA, Table S4, MRSA strain 28, read-out: MIC) was 0.5 µg/mL (≈ 1.64 µM) and the MIC ([2]; MRSA, Table S4, MRSA strain 29, read-out: MIC) was 0.5 µg/mL (≈ 1.64 µM). It also gave an MIC ([2]; MRSA, Table S4, MRSA strain 30, read-out: MIC) of 0.5 µg/mL (≈ 1.64 µM), an MIC ([2]; MRSA, Table S4, MRSA strain 31, read-out: MIC) of 0.5 µg/mL (≈ 1.64 µM) and an MIC ([2]; MRSA, Table S4, MRSA strain 34, read-out: MIC) of 0.125 µg/mL (≈ 0.411 µM). It also gave an MIC ([2]; MRSA, Table S4, MRSA strain 35, read-out: MIC) of 0.5 µg/mL (≈ 1.64 µM), an MIC ([2]; MRSA, Table S4, MRSA strain 36, read-out: MIC) of 0.25 µg/mL (≈ 0.821 µM) and an MIC ([2]; MRSA, Table S4, MRSA strain 40, read-out: MIC) of 0.5 µg/mL (≈ 1.64 µM). It also gave an MIC ([2]; MRSA, Table S4, MRSA strain 41, read-out: MIC) of 0.25 µg/mL (≈ 0.821 µM), an MIC ([2]; MRSA, Table S4, MRSA strain 42, read-out: MIC) of 0.5 µg/mL (≈ 1.64 µM) and an MIC ([2]; MRSA, Table S4, MRSA strain 43, read-out: MIC) of 0.5 µg/mL (≈ 1.64 µM). The MIC ([2]; MRSA, Table S4, MRSA strain 44, read-out: MIC) was 0.5 µg/mL (≈ 1.64 µM), the MIC ([2]; MRSA, Table S4, MRSA strain 45, read-out: MIC) was 0.5 µg/mL (≈ 1.64 µM) and the MIC ([2]; MRSA, Table S4, MRSA strain 46, read-out: MIC) was 0.5 µg/mL (≈ 1.64 µM). The MIC ([2]; MRSA, Table S4, MRSA strain 48, read-out: MIC) was 0.5 µg/mL (≈ 1.64 µM), the MIC ([2]; MRSA, Table S4, MRSA strain 49, read-out: MIC) was 0.25 µg/mL (≈ 0.821 µM) and the MIC ([2]; MRSA, Table S4, MRSA strain 50, read-out: MIC) was 0.5 µg/mL (≈ 1.64 µM). For the same molecule, the MIC ([2]; MRSA, Table S4, MRSA strain 51, read-out: MIC) was 0.5 µg/mL (≈ 1.64 µM), the IC50 [3] was 19 µg/mL (≈ 62.4 µM) and the IC50 [4] was 19 µg/mL (≈ 62.4 µM). The “Selectivity Index” value [5] was 76.
